Where “and” joins values, the source holds several entries; their conditions need not be identical. Equal entries are not always repeated. Where two headings read alike, the source gives them in different places.
Legend:
mGlyT-1b = target: T1, mGlyT-1b (Mus musculus, UniProt P28571); test: Glycine uptake inhibition assay (mGlyT-1b); format: cell-based
T1 construct: host or cells: Flp-in-CHO
T1 sequence (P28571 1-651 isoform P28571-2): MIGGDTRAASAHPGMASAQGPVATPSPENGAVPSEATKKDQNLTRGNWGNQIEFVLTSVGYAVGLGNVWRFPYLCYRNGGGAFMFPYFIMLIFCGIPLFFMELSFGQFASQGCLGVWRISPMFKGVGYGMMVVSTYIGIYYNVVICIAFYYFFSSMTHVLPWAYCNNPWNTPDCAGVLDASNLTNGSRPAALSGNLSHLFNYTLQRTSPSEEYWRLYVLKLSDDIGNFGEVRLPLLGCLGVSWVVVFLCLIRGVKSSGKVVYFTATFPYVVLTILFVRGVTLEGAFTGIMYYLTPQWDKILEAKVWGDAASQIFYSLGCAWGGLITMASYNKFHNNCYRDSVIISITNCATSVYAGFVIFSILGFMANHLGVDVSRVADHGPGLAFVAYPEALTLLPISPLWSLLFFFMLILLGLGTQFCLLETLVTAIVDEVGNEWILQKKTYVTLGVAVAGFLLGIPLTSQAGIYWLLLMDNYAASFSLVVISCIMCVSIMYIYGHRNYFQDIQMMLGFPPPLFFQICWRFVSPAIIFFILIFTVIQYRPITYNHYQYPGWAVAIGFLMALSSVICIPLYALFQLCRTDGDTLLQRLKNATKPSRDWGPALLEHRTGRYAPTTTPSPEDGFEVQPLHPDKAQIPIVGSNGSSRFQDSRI
Procedure: DMEM complete medium: Nutrient mixture F-12 (Gibco Life-technologies), fetal bovine serum (FBS) 5%, (Gibco life technologies), Penicillin/Streptomycinl % (Gibco life technologies), Hygromycin 0.6 mg/ml (Gibco life technologies), Glutamine 1 mM Gibco life technologies)
Uptake buffer (UB): 150 mM NaCl, 10 mM Hepes-Tris, pH 7.4, 1 mM CaCl2, 2.5 mM KCl, 2.5 mM MgSO4, 10 mM (+) D-glucose.
Flp-in™-CHO (Invitrogen Cat no. R758-07)cells stably transfected with mGlyT1b cDNA.
Glycine Uptake Inhibition Assay (mGlyT-1b)

GlyT-1 = target: T2, GlyT-1 (Homo sapiens, UniProt P48067); test: GlyT-1 inhibition, human; format: cell-based
T2 sequence (P48067 1-706): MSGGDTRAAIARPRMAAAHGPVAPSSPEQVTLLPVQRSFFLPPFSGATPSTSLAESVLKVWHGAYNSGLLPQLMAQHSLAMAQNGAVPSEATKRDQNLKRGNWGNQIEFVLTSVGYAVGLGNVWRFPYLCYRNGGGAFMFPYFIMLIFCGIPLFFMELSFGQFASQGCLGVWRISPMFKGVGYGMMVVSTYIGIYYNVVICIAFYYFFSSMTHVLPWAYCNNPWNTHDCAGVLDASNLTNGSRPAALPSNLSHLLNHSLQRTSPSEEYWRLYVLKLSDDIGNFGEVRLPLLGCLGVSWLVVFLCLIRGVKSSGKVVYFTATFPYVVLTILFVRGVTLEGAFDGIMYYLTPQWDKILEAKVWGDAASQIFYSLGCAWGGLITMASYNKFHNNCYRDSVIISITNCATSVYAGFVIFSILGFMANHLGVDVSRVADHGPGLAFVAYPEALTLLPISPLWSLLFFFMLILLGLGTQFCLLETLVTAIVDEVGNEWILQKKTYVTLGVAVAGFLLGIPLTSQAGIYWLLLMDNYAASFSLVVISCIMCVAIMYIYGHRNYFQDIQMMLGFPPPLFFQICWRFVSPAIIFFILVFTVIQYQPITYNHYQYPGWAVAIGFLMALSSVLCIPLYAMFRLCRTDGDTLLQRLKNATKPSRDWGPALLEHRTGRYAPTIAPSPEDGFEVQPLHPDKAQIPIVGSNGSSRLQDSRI
Procedure: On day 1 mammalian cells, (Flp-in™-CHO), transfected with mGlyT-1b cDNA , were plated at the density of 40,000 cells/well in complete F-12 medium, without hygromycin in 96-well culture plates. On day 2, the medium was aspirated and the cells were washed twice with uptake buffer (UB). The cells were then incubated for 20 min at 22° C. with either (i) no potential competitor, (ii) 10 mM non-radioactive glycine , (iii) a concentration of a potential inhibitor. […] A solution was then immediately added containing [^3H]-glycine 60 nM (11-16 Ci/mmol) and 25 µM non-radioactive glycine. The plates were incubated with gentle shaking and the reaction was stopped by aspiration of the mixture and washing (three times) with ice-cold US. The cells were lysed with scintillation liquid, shaken 3 hours and the radioactivity in the cells was coounted using a scintillation counter.

Structure (SMILES): O=C1NCC(c2ccc(F)cc2)C12CCN(C1(c3ccsc3)CCCCC1)CC2 (racemic) [Example 38, rac-4-(4-Fluoro-phenyl)-8-(1-thiophen-3-yl-cyclohexyl)-2,8-diaza-spiro[4.5]decan-1-one]
- IC50 (mGlyT-1b; GlyT-1 Enant. Mouse/human): 99 nM and 213 nM
- IC50 (mGlyT-1b; GlyT-1 Racemat Mouse/human): 99 nM

Structure (SMILES): O=C1NCC(c2ccc(F)cc2)C12CCN(C1(c3ccc(F)cc3)CCCCCC1)CC2 (racemic) [Example 50, rac4-(4-Fluoro-phenyl)-8-[1-(4-fluoro-phenyl)-cycloheptyl]-2,8-diaza-spiro[4.5]decan-1-one]
- IC50 (GlyT-1; racemate, human value (after the slash), read-out: GlyT-1 Racemat Mouse/human): 132 nM
- IC50 (mGlyT-1b): 81 nM
- IC50 (mGlyT-1b; second-listed enantiomer, mouse value (before the slash), read-out: GlyT-1 Enant. Mouse/human): 153 nM

Structure (SMILES): Cc1ccc(C2CNC(=O)C23CCN(C2(c4ccc(F)cc4)CCCCC2)CC3)cc1 (racemic) [Example 52, rac 8-[1-(4-Fluoro-phenyl)-cyclohexyl]4-p-tolyl-2,8-diaza-spiro [4.5]decan-1-one]
- IC50 (GlyT-1; GlyT-1 Racemat Mouse/human): 73 nM

Reference: patent US7265126B2, “Diaza-spiropiperidine derivatives” (Hoffmann-La Roche Inc., priority 2004, dated 2007)
